pIC50: −log10 of the molar value. Where a name gives a salt, the structure may show the parent alone.

Tested on in one data set: not given
Experiment: not given
Conditions: not given
What is called melting point is the temperature of the solid-liquid transition. For `C[C@H](NC(=O)Cc1cc(F)cc(F)c1)C(=O)N[C@@H]1C(=O)Nc2ccccc2S[C@@H]1c1cc(Br)cs1` [Example 104, N^1-[(2S,3R)-2-(4-Bromo-2-thienyl)-4-oxo-2,3,4,5-tetrahydro-1,5-benzothiazepin-3-yl]-N^2-[(3,5-difluorophenyl)acetyl]-L-alaninamide], the melting point was in the range of 145 to 155 °C. Still for that read-out and setting: the figure for `O=C(Cc1cc(F)cc(F)c1)NCC(=O)N[C@@H]1C(=O)Nc2ccccc2S[C@@H]1c1ccccc1` [Example 106, N^2-[(3,5-Difluorophenyl)acetyl]-N^1-[(2R,3R)-4-oxo-2-phenyl-2,3,4,5-tetrahydro-1,5-benzothiazepin-3-yl]glycinamide] is 125 to 130 °C. `C[C@H](NC(=O)Cc1cc(F)cc(F)c1)C(=O)N[C@@H]1C(=O)Nc2ccccc2S[C@@H]1c1ccc(Br)s1` [Example 103, N^1-[(2S,3R)-2-(5-Bromo-2-thienyl)-4-oxo-2,3,4,5-tetrahydro-1,5-benzothiazepin-3-yl]-N^2-[(3,5-difluorophenyl)acetyl]-L-alaninamide] registered a melting point of 139 to 140 °C. The same measure, in the same setting: the figure for `C[C@H](NC(=O)Cc1cccc(F)c1)C(=O)N[C@@H]1C(=O)Nc2ccccc2O[C@@H]1c1ccccc1` [Example 115, N^2-[(3-Fluorophenyl)acetyl]-N^1-[(2R,3S)-4-oxo-2-phenyl-2,3,4,5-tetrahydro-1,5-benzoxazepin-3-yl]-L-alaninamide] is 130 to 140 °C. Regarding `C[C@H](NC(=O)Cc1ccccc1F)C(=O)N[C@@H]1C(=O)Nc2ccccc2O[C@@H]1c1ccccc1` [Example 114, N^2-[(2-Fluorophenyl)acetyl]-N^1-[(2R,3S)-4-oxo-2-phenyl-2,3,4,5-tetrahydro-1,5-benzoxazepin-3-yl]-L-alaninamide], the melting point is 115 to 135 °C. For `C[C@H](NC(=O)Cc1ccc(F)cc1)C(=O)N[C@@H]1C(=O)Nc2ccccc2O[C@@H]1c1ccccc1` [Example 116, N^2-[(4-Fluorophenyl)acetyl]-N^1-[(2R,3S)-4-oxo-2-phenyl-2,3,4,5-tetrahydro-1,5-benzoxazepin-3-yl]-L-alaninamide], the melting point was in the range of 130 to 140 °C. On to `O=C(Cc1cc(F)cc(F)c1)N[C@@H](Cc1cc2ccccc2[nH]1)C(=O)N[C@@H]1C(=O)Nc2ccccc2S[C@@H]1c1ccccc1` [Example 110, N^2-[(3,5-Difluorophenyl)acetyl]-3-(1H-indol-2-yl)-N^1-[(2R,3R)-4-oxo-2-phenyl-2,3,4,5-tetrahydro-1,5-benzothiazepin-3-yl]-L-alaninamide], for which the melting point was 85 to 90 °C. On the same count and under the same terms, under `C[C@H](NCCc1ccccc1)C(=O)N[C@@H]1C(=O)Nc2ccccc2S[C@@H]1c1ccccc1` (as salt: hydrochloride) [Example 98, N^1-[(2R,3R)-4-Oxo-2-phenyl-2,3,4,5-tetrahydro-1,5-benzothiazepin-3-yl]-N^2-(2-phenylethyl)-L-alaninamide] stands 184 to 195 °C; under `C[C@H](NC(=O)Cc1cc(F)cc(F)c1)C(=O)N[C@@H]1C(=O)Nc2ccccc2S[C@@H]1c1ccsc1` [Example 100, N^2-[(3,5-Difluorophenyl)acetyl]-N^1-[(2R,3R)-4-oxo-2-(3-thienyl)-2,3,4,5-tetrahydro-1,5-benzothiazepin-3-yl]-L-alaninamide], 117 to 122 °C; under `CSCC[C@H](NC(=O)Cc1cc(F)cc(F)c1)C(=O)N[C@@H]1C(=O)Nc2ccccc2S[C@@H]1c1ccccc1` [Example 109, N^2-[(3,5-Difluorophenyl)acetyl]-N^1-[(2R,3R)-4-oxo-2-phenyl-2,3,4,5-tetrahydro-1,5-benzothiazepin-3-yl]-L-methioninamide], 85 to 90 °C. On to `C[C@H](NC(=O)Cc1cc(F)cc(F)c1)C(=O)N[C@@H]1C(=O)Nc2ccccc2S[C@@H]1c1cccs1` [Example 99, N^2-[(3,5-Difluorophenyl)acetyl]-N^1-[(2S,3R)-4-oxo-2-(2-thienyl)-2,3,4,5-tetrahydro-1,5-benzothiazepin-3-yl]-L-alaninamide], for which the melting point is 117 to 119 °C. On the same count and under the same terms, under `C[C@H](NC(=O)Cc1cc(F)cc(F)c1)C(=O)N[C@@H]1C(=O)Nc2ccccc2S[C@H]1c1ccoc1` [Example 102, N^2-[(3,5-Difluorophenyl)acetyl]-N^1-[(2S,3R)-2-(3-furyl)-4-oxo-2,3,4,5-tetrahydro-1,5-benzothiazepin-3-yl]-L-alaninamide] stands 115 to 120 °C; under `C[C@H](NC(=O)Cc1ccccc1)C(=O)N[C@@H]1C(=O)Nc2ccccc2O[C@@H]1c1ccccc1` [Example 113, N^1-[(2R,3S)-4-Oxo-2-phenyl-2,3,4,5-tetrahydro-1,5-benzoxazepin-3-yl]-N^2-(phenylacetyl)-L-alaninamide], 122 to 136 °C; under `C[C@H](NC(=O)Cc1ccccc1)C(=O)N[C@@H]1C(=O)Nc2ccccc2S[C@@H]1c1ccccc1` [Example 97, N^1-[(2R,3R)-4-Oxo-2-phenyl-2,3,4,5-tetrahydro-1,5-benzothiazepin-3-yl]-N^2-(phenylacetyl)-L-alaninamide], 114 to 124 °C. The same measure, in the same setting: the figure for `C[C@H](NC(=O)Cc1cc(F)cc(F)c1)C(=O)N[C@@H]1C(=O)NCCS[C@@H]1c1ccccc1` [Example 7, N^2-[(3,5-Difluorophenyl)acetyl]-N^1-[(6R,7R)-5-oxo-7-phenyl-1,4-thiazepan-6-yl]-L-alaninamide] is 128 to 133 °C; for `CC(C)[C@H](NC(=O)Cc1cc(F)cc(F)c1)C(=O)N[C@@H]1C(=O)Nc2ccccc2S[C@@H]1c1ccccc1` [Example 107, N^2-[(3,5-Difluorophenyl)acetyl]-N^1-[(2R,3R)-4-oxo-2-phenyl-2,3,4,5-tetrahydro-1,5-benzothiazepin-3-yl]-L-valinamide] it is 110 to 115 °C; for `C[C@H](NC(=O)Cc1cc(F)cc(F)c1)C(=O)N[C@@H]1C(=O)Nc2ccccc2S[C@@H]1c1ccco1` [Example 101, N^2-[(3,5-Difluorophenyl)acetyl]-N^1-[(2S,3R)-2-(2-furyl)-4-oxo-2,3,4,5-tetrahydro-1,5-benzothiazepin-3-yl]-L-alaninamide] it is 125 to 130 °C. The same measure, in the same setting: under `N[C@@H](Cc1ccccc1)C(=O)N(C(=O)Cc1cc(F)cc(F)c1)[C@@H]1C(=O)Nc2ccccc2S[C@@H]1c1ccccc1` [Example 105, N-[(3,5-Difluorophenyl)acetyl]-N-[(2R,3R)-4-oxo-2-phenyl-2,3,4,5-tetrahydro-1,5-benzothiazepin-3-yl]-L-phenylalaninamide] stands 115 to 120 °C.

Another data set has as its system Notch 1 intracellular domain. Kind of data set: Ability of compounds to block Notch signaling: Western analysis of active Notch 1 protein (Notch 1 intracellular domain) in SUP-T1 cells. Format: cell-based. The following applies: Homo sapiens; T lymphoblast SUP-T1 cells, 12-16 h with compound; Western blot with antibody to cleaved Notch 1 (Val 1744), band of approximately 100 kDa; read-out: estimated IC50. Here is the method:
T lymphoblast SUP-T1 cells (CRL-1942, ATCC, Manassas, Va.) are routinely cultured in culture medium comprising RPMI-1640 (Invitrogen, Carlsbad, Calif.) supplemented with 10% Fetal Bovine serum (Sigma Chemical Co., St. Louis, Mo.) and 2 mM glutamine (Invitrogen, Carlsbad, Calif.) and grown at 37° C. at 95%/5% (v/v) air/CO2 in 95% relative humidity (standard cell culture conditions). Cells in culture medium are plated into flat-bottomed tissue culture plates (Corning Costar, Acton, Mass.) Subsequently, a compound of Formula (1) or vehicle (e.g., 0.1% (v/v) DMSO) may be added and plates are incubated for a further 12-16 h under standard cell culture conditions. Subsequently, the presence of active Notch 1 protein (Notch 1 intracellular domain) is determined by Western analysis according to conventional methods. Immunoblotting is performed using a primary antibody to cleaved Notch 1 (Val 1744; Cell Signaling Technology, Danvers, Mass.) and a goat anti-rabbit horseradish peroxidase conjugated secondary antibody (Santa Cruz Biotechnology, Santa Cruz, Calif.). For Western blotting, equal amounts of protein extracted from each sample (20 μg) are loaded into pre-cast 4-12% NuPAGE Tris-Glycine gels (Invitrogen, Carlsbad, Calif.). Proteins are separated by SDS-PAGE and transferred electrophoretically to polyvinylidene diflouride membranes (Invitrogen, Carlsbad, Calif.) using a semi-dry blotter. The membrane is washed briefly in Tris-buffered saline (TBS) (Bio-Rad Laboratories, Hercules, Calif.) and blocked for 1 h in TBS supplemented with 0.05% (v/v) Tween 20 (TBST) and 5% (w/v) dried milk, before being incubated for ˜12 h with primary antibody in TBS supplemented with 0.05% (v/v) Tween 20 (TBST) and 5% (w/v) dried milk. Following washing in TBST, the membrane is incubated with secondary antibody as indicated prior to visualization via enhanced chemiluminescent detection using DuraWest reagent (Pierce Biotechnology, Rockford, Ill.) and is detected with Amersham Hyperfilm MP according to the manufacturer's instructions. […]
Broadly, the pIC50 is the negative decadic logarithm of the IC50, by convention in mol/L. `C[C@H](NC(=O)Cc1ccccc1F)C(=O)N[C@@H]1C(=O)Nc2ccccc2O[C@@H]1c1ccccc1` [Example 114, N^2-[(2-Fluorophenyl)acetyl]-N^1-[(2R,3S)-4-oxo-2-phenyl-2,3,4,5-tetrahydro-1,5-benzoxazepin-3-yl]-L-alaninamide]: the pIC50 was 7.78. Same read-out and setting: the figure for `C[C@H](NC(=O)Cc1cc(F)cc(F)c1)C(=O)N[C@@H]1C(=O)Nc2ccccc2S[C@@H]1c1ccsc1` [Example 100, N^2-[(3,5-Difluorophenyl)acetyl]-N^1-[(2R,3R)-4-oxo-2-(3-thienyl)-2,3,4,5-tetrahydro-1,5-benzothiazepin-3-yl]-L-alaninamide] is 7.30; for `C[C@H](NC(=O)Cc1cc(F)cc(F)c1)C(=O)N[C@@H]1C(=O)Nc2cc(F)ccc2O[C@@H]1c1ccccc1` [Example 75, N^2-[(3,5-Difluorophenyl)acetyl]-N^1-[(2R,3S)-7-fluoro-4-oxo-2-phenyl-2,3,4,5-tetrahydro-1,5-benzoxazepin-3-yl]-L-alaninamide] it is 8.40.

These data come from patent publication US20090054398A1, “CHEMICAL COMPOUNDS” (ASTRAZENECA AB, priority 2006, published 2009).
